Values of other authors as cited in PubChem BioAssay AID1259409 (Chemical Carcinogenesis Research Information System (CCRIS), 2018).
Values joined by “and” are separate entries in the source; they are usually repeats but may differ in a detail not shown here. Equal values may be shown once.

Tested on: rodent chemically induced tumor inhibition, incidence and multiplicity
Assay: CCRIS tumor inhibitor studies
Details: Route [Inhibitor]: ORAL, Promoter: NONE USED

SMILES	tumour outcome (control, treated, inhibition, significance) (Carcinogen: N-2-FLUORENYLACETMIDE, 53-96-3, Dose [Inhibitor]: 0.1 PPM IN DIET DAILY STARTING SIMULTANEOUSLY WITH CARCINOGEN TREATMENT AT AGE 35 D AND CONTINUING FOR DURATION OF STUDY, Species: RAT, Strain/Sex: OSU-BROWN/FEMALE, Target Tissue: Type of Lesion: LIVER: HEPATOMA, Dose [Carcinogen]: 150 PPM IN DIET DAILY FOR DURATION OF STUDY)	tumour outcome (control, treated, inhibition, significance) (Carcinogen: N-2-FLUORENYLACETMIDE, 53-96-3, Dose [Inhibitor]: 0.1 PPM IN DIET DAILY STARTING SIMULTANEOUSLY WITH CARCINOGEN TREATMENT AT AGE 35 D AND CONTINUING FOR DURATION OF STUDY, Species: RAT, Strain/Sex: OSU-BROWN/FEMALE, Target Tissue: Type of Lesion: MAMMARY GLAND: ADENOCARCINOMA, Dose [Carcinogen]: 150 PPM IN DIET DAILY FOR DURATION OF STUDY)	tumour outcome (control, treated, inhibition, significance) (Carcinogen: N-2-FLUORENYLACETMIDE, 53-96-3, Dose [Inhibitor]: 0.5 PPM IN DIET DAILY STARTING SIMULTANEOUSLY WITH CARCINOGEN TREATMENT AT AGE 35 D AND CONTINUING FOR DURATION OF STUDY, Species: RAT, Strain/Sex: OSU-BROWN/FEMALE, Target Tissue: Type of Lesion: LIVER: HEPATOMA, Dose [Carcinogen]: 150 PPM IN DIET DAILY FOR DURATION OF STUDY)	tumour outcome (control, treated, inhibition, significance) (Carcinogen: N-2-FLUORENYLACETMIDE, 53-96-3, Dose [Inhibitor]: 0.5 PPM IN DIET DAILY STARTING SIMULTANEOUSLY WITH CARCINOGEN TREATMENT AT AGE 35 D AND CONTINUING FOR DURATION OF STUDY, Species: RAT, Strain/Sex: OSU-BROWN/FEMALE, Target Tissue: Type of Lesion: MAMMARY GLAND: ADENOCARCINOMA, Dose [Carcinogen]: 150 PPM IN DIET DAILY FOR DURATION OF STUDY)	tumour outcome (control, treated, inhibition, significance) (Carcinogen: N-2-FLUORENYLACETMIDE, 53-96-3, Dose [Inhibitor]: 2.5 PPM IN DIET DAILY STARTING SIMULTANEOUSLY WITH CARCINOGEN TREATMENT AT AGE 35 D AND CONTINUING FOR DURATION OF STUDY, Species: RAT, Strain/Sex: OSU-BROWN/FEMALE, Target Tissue: Type of Lesion: LIVER: HEPATOMA, Dose [Carcinogen]: 150 PPM IN DIET DAILY FOR DURATION OF STUDY)	tumour outcome (control, treated, inhibition, significance) (Carcinogen: N-2-FLUORENYLACETMIDE, 53-96-3, Dose [Inhibitor]: 2.5 PPM IN DIET DAILY STARTING SIMULTANEOUSLY WITH CARCINOGEN TREATMENT AT AGE 35 D AND CONTINUING FOR DURATION OF STUDY, Species: RAT, Strain/Sex: OSU-BROWN/FEMALE, Target Tissue: Type of Lesion: MAMMARY GLAND: ADENOCARCINOMA, Dose [Carcinogen]: 150 PPM IN DIET DAILY FOR DURATION OF STUDY)	tumour outcome (control, treated, inhibition, significance) (Carcinogen: NONE USED, Dose [Inhibitor]: 0.1 PPM IN DRINKING WATER DAILY FOR 22 MO STARTING AT AGE 2 MO AND CONTINUING FOR DURATION OF STUDY (STUDY DURATION: 22, Species: MOUSE, Strain/Sex: C3H/FEMALE, Target Tissue: Type of Lesion: MAMMARY GLAND: ADENOCARCINOMA)	tumour outcome (control, treated, inhibition, significance) (Carcinogen: NONE USED, Dose [Inhibitor]: 0.5 PPM IN DRINKING WATER DAILY FOR 22 MO STARTING AT AGE 2 MO AND CONTINUING FOR DURATION OF STUDY (STUDY DURATION: 22, Species: MOUSE, Strain/Sex: C3H/FEMALE, Target Tissue: Type of Lesion: MAMMARY GLAND: ADENOCARCINOMA)	tumour outcome (control, treated, inhibition, significance) (Carcinogen: NONE USED, Dose [Inhibitor]: 1 PPM IN DRINKING WATER DAILY FOR 22 MO STARTING AT AGE 2 MO AND CONTINUING FOR DURATION OF STUDY (STUDY DURATION: 22 MO, Species: MOUSE, Strain/Sex: C3H/FEMALE, Target Tissue: Type of Lesion: MAMMARY GLAND: ADENOCARCINOMA)	tumour outcome (control, treated, inhibition, significance) (Carcinogen: NONE USED, Dose [Inhibitor]: 2 PPM IN DRINKING WATER DAILY FOR DURATION OF STUDY (STUDY DURATION: 16 MO), Species: MOUSE, Strain/Sex: C3H/FEMALE, Target Tissue: Type of Lesion: MAMMARY GLAND: ADENOCARCINOMA)	tumour outcome (control, treated, inhibition, significance) (Carcinogen: NONE USED, Dose [Inhibitor]: 5 PPM IN DRINKING WATER DAILY STARTING AT AGE 1 MO AND CONTINUING FOR LIFE (STUDY DURATION: LIFE), Species: MOUSE, Strain/Sex: C3H/FEMALE, Target Tissue: Type of Lesion: MAMMARY GLAND: TUMOR)	tumour outcome (control, treated, inhibition, significance) (Carcinogen: NONE USED, Dose [Inhibitor]: 15 PPM IN DRINKING WATER DAILY STARTING AT AGE 1 MO AND CONTINUING FOR LIFE (STUDY DURATION: LIFE), Species: MOUSE, Strain/Sex: C3H/FEMALE, Target Tissue: Type of Lesion: MAMMARY GLAND: TUMOR)	tumour outcome (control, treated, inhibition, significance) (Carcinogen: N-ETHYL-N'-NITRO-N-NITROSOGUANIDINE, 70-25-7, Dose [Inhibitor]: 0, 0.005% IN DRINKING WATER (DISSOLVED IN 50 MG/ML DMSO) FOR 4 WK BEGINNING POST CARCINOGEN TREATMENT FOLLOWED BY 12 WK, Species: MOUSE, Strain/Sex: C57BL/MALE, Target Tissue: Type of Lesion: DUODENUM: TUMORS, Dose [Carcinogen]: 100 MG/L IN DRINKING WATER AD LIBITUM FOR 4 WK)	tumour outcome (control, treated, inhibition, significance) (Carcinogen: N-ETHYL-N'-NITRO-N-NITROSOGUANIDINE, 70-25-7, Dose [Inhibitor]: 0, 0.005% IN DRINKING WATER (DISSOLVED IN 50 MG/ML DMSO) FOR 16 WK BEGINNING POST CARCINOGEN TREATMENT (STUDY DURATION:, Species: MOUSE, Strain/Sex: C57BL/MALE, Target Tissue: Type of Lesion: DUODENUM: TUMORS, Dose [Carcinogen]: 100 MG/L IN DRINKING WATER AD LIBITUM FOR 4 WK)	tumour outcome (control, treated, inhibition, significance) (Carcinogen: N-ETHYL-N'-NITRO-N-NITROSOGUANIDINE, 4245-77-6, Dose [Inhibitor]: 0, 0.005% IN DRINKING WATER BEGINNING POST CARCINOGEN TREATMENT AND CONTINUING FOR 16 WK (STUDY DURATION: 20 WK), Species: MOUSE, Strain/Sex: C57BL/MALE, Target Tissue: Type of Lesion: DUODENUM: TUMOR, Dose [Carcinogen]: 100 MG/L DRINKING WATER FOR 4 WK)
O=[Se]=O	85%, 100%, -18%, not calculated	94%, 100%, -6%, not calculated	85%, 80%, 6%, not calculated	94%, 85%, 10%, not calculated	85%, 50%, 41%, not calculated	94%, 68%, 28%, not calculated	42%, 25%, 40%, not calculated	42%, 19%, 55%, not calculated	42%, 10%, 76%, not calculated	82%, 10%, 88%, not calculated	82%, 36%, 56%, p<0.005	82%, 33%, 60%, p<0.005			
CC(=O)O[C@H]1CC(C)(C)C(=C=C/C(C)=C/C=C/C(C)=C/C=C/C=C(C)/C=C/C=C(\C)C(=O)C[C@@]23O[C@]2(C)C[C@@H](O)CC3(C)C)[C@](C)(O)C1													14/28 (78%), 13/20 (65%), 17%, not significant	14/21 (67%), 7/20 (35%), 48%, p<0.05 and 14/28 (78%), 6/20 (30%), 62%, p<0.005	14/21 (67%), 7/20 (35%), 48%, p<0.05
